Source: patent US20230279016A1, “Tetrahydropyrazolopyrimidines and Related Analogs for Inhibiting YAP/TAZ-TEAD” (THE KATHOLIEKE UNIVERSITEIT LEUVEN, priority 2021, published 2023)

Tests used:
Type in all cases: cell-based
[1] = system: NCI-H226 mesothelioma cell line; test: Mesothelioma cell line proliferation assay, NCI-H226; details: NCI-H226, 6 days with compound, cell viability by ATPlite
Description: (§1) Mesothelioma cell lines, NCI-H226 and NCI-H2052 (all sourced from the ATCC cell culture collection) are plated in 96-well plates (Corning® 96 Well White Polystyrene Microplate clear flat bottom, white polystyrene (TC-Treated)), at 1500 cells/well in full medium (RPMI 1640 ATCC modification with L-glutamine, HEPES, Phenol Red, Sodium Pyruvate, High glucose, Low sodium bicarbonate and 10% fetal bovine serum). Cells are incubated overnight at 37° C. in an incubator with 5% CO2. Then compounds, dissolved in DMSO, are added in dose-response. Cells are incubated with compound dilutions for another 6 days at 37° C. in an incubator with 5% CO2. Cell viability is quantitated using the ATPlite kit (Perkin-Elmer) and the luminescence is read-out using an Envision instrument (Perkin-Elmer). The amount of relative light units produced using the ATPlite kit is used to calculated percent of inhibition.
(§2) The activities of example compounds tested are depicted in the table below. The activity ranges A, B and C refer to EC50 values in the mesothelioma cell line proliferation assay as described as follows: “A”: EC50 <1 μM; “B” : 1 μM EC50 ≤10 μM and “C” : EC50 >10 μM. NT: not tested.

[2] = system: NCI-H2052 mesothelioma cell line; test: Mesothelioma cell line proliferation assay, NCI-H2052; details: NCI-H2052, 6 days with compound, cell viability by ATPlite
Description: as §1, §2

[3] = system: YAP/TAZ-TEAD transcription; test: Reporter gene assay for measuring the inhibition of YAP/TAZ-TEAD transcription (TEAD-responsive element luciferase reporter in Hek293T cells); details: Hek293T cells transiently transfected with TEAD-responsive element luciferase reporter, 24 hours incubation
How it was run: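 Hek293T cells transiently transfected with TEAD-responsive luciferase reporter, exposed to compound for 24 h at 37° C/5% CO2, then read by luminescence. Percent inhibition normalized to vehicle (0%) and positive control inhibitor (100%); EC50 reported as activity ranges.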

| EC50 ([3]; Homo sapiens, HEK-293T, 24 h) | SMILES | also measured |
| --- | --- | --- |
| > 20 µM | CS(=O)(=O)NCC1CN(Cc2cccc(C(F)(F)F)c2)c2ccnn2C1 (stereo not drawn) [Cpd. No. 054, N-((4-(3-(trifluoro-methyl)benzyl)-4,5,6,7-tetrahydropyrazolo[1,5-a]pyrimidin-6-yl)-methyl)methanesulfonamide] |  |
| < 1 µM | C=CC(=O)NCC1CN(CC2CCCCC2)c2ccnn2C1 (stereo not drawn) [Cpd. No. 055, N-((4-(cyclohexylmethyl)-4,5,6,7-tetrahydropyrazolo[1,5-a]pyrimidin-6-yl)-methyl)acrylamide] |  |
| > 20 µM | C#CCN1CC(CNC(=O)C=C)Cn2nccc21 (stereo not drawn) [Cpd. No. 057, N-((4-(prop-2-yn-1-yl)-4,5,6,7-tetrahydropyrazolo[1,5-a]pyrimidin-6-yl)-methyl)acrylamide] |  |
| < 1 µM | C=CC(=O)NC1CN(c2ccc(Cl)cc2)c2ccnn2C1 (stereo not drawn) [Cpd. No. 066, N-(4-(4-chlorophenyl)-4,5,6,7-tetrahydropyrazolo[1,5-a]pyrimidin-6-yl)acrylamide] |  |
| > 20 µM | CS(=O)(=O)NC1CN(c2ccc(C(F)(F)F)cc2)c2ccnn2C1 (stereo not drawn) [Cpd. No. 067, N-(4-(4-(trifluoromethyl)phenyl)-4,5,6,7-tetrahydropyrazolo[1,5-a]pyrimidin-6-yl)methanesulfonamide] |  |
| > 20 µM | CCC(=O)NCC1Cc2c(cnn2C)N(c2ccc(C(F)(F)F)cc2)C1 (stereo not drawn) [Cpd. No. 072, N-((1-methyl-4-(4-(trifluoromethyl)phenyl)-4,5,6,7-tetrahydro-1H-pyrazolo[4,3-b]pyridin-6-yl)methyl)propionamide] |  |
| > 20 µM | CCC(=O)NCC1Cc2c(cnn2C)N(c2ccc(OC(F)(F)F)cc2)C1 (stereo not drawn) [Cpd. No. 074, N-((1-methyl-4-(4-(trifluoromethoxy)phenyl)-4,5,6,7-tetrahydro-1H-pyrazolo[4,3-b]pyridin-6-yl)methyl)propionamide] |  |
| 1 to 20 µM | Cn1cc2c(n1)CC(CNS(C)(=O)=O)CN2c1ccc(C(F)(F)F)cc1 (stereo not drawn) [Cpd. No. 077, N-((2-methyl-4-(4-(trifluoromethyl)phenyl)-4,5,6,7-tetrahydro-2H-pyrazolo[4,3-b]pyridin-6-yl)methyl)methanesulfonamide] |  |
| > 20 µM | CNC(=O)C1CN(c2ccc(C(F)(F)F)cc2)c2ccnn2C1 (stereo not drawn) [Cpd. No. 092, N-methyl-4-(4-(trifluoromethyl)phenyl)-4,5,6,7-tetrahydropyrazolo[1,5-a]pyrimidine-6-carboxamide] |  |
| > 20 µM | CS(=O)(=O)NC(=O)C1CN(c2ccc(C(F)(F)F)cc2)c2ccnn2C1 (stereo not drawn) [Cpd. No. 093, N-(methylsulfonyl)-4-(4-(trifluoromethyl)phenyl)-4,5,6,7-tetrahydropyrazolo[1,5-a]pyrimidine-6-carboxamide] |  |
| < 1 µM | C=CC(=O)NCC1CN(c2ccc(C(F)(F)F)cc2)c2cnc(C(F)(F)F)n2C1 (stereo not drawn) [Cpd. No. 094, N-((6-(trifluoromethyl)-1-(4-(trifluoromethyl)phenyl)-1,2,3,4-tetrahydroimidazo[1,5-a]pyrimidin-3-yl)methyl)acrylamide] |  |

The next lines start with the molecule.

| SMILES | EC50 ([3]; Homo sapiens, HEK-293T, 24 h) | also measured |
| --- | --- | --- |
| C=CC(=O)NCC1CN(c2cccc(C(F)(F)F)c2)c2ccnn2C1 (single isomer, unassigned) [Cpd. No. 003-En1, (R)- or (S)-N-((4-(3-(trifluoromethyl)phenyl)-4,5,6,7-tetrahydropyrazolo[1,5-a]pyrimidin-6-yl)methyl)acrylamide] |  | EC50 ([1]; Homo sapiens, NCI-H226, 144 h): 1 to 10 µM; EC50 ([2]; Homo sapiens, NCI-H2052, 144 h): > 10 µM |
| C=CC(=O)NCC1CN(c2ccc(OC(F)(F)F)c(F)c2)c2ccnn2C1 (single isomer, unassigned) [Cpd. No. 018-En1, (R)- or (S)-N-((4-(3-fluoro-4-(trifluoromethoxy)phenyl)-4,5,6,7-tetrahydropyrazolo[1,5-a]pyrimidin-6-yl)methyl)acrylamide] |  | EC50 ([1]; Homo sapiens, NCI-H226, 144 h): < 1 µM; EC50 ([2]; Homo sapiens, NCI-H2052, 144 h): < 1 µM |
| C=CC(=O)NCC1CN(c2ccc(OC(F)(F)F)c(F)c2)c2ccnn2C1 (single isomer, unassigned) [Cpd. No. 018-En2, (R)- or (S)-N-((4-(3-fluoro-4-(trifluoromethoxy)phenyl)-4,5,6,7-tetrahydropyrazolo[1,5-a]pyrimidin-6-yl)methyl)acrylamide] |  | EC50 [1]: < 1 µM; EC50 [2]: < 1 µM |
| C=CC(=O)NCC1CN(c2ccc(Br)cc2)c2ccnn2C1 (single isomer, unassigned) [Cpd. No. 021-En2, (R)- or (S)-N-((4-(4-bromophenyl)-4,5,6,7-tetrahydropyrazolo[1,5-a]pyrimidin-6-yl)methyl)acrylamide] |  | EC50 ([1]; Homo sapiens, NCI-H226, 144 h): < 1 µM; EC50 ([2]; Homo sapiens, NCI-H2052, 144 h): < 1 µM |
| C=CC(=O)NCC1CN(c2ccc(OC(F)(F)F)cc2)c2cc(C(F)(F)F)nn2C1 (single isomer, unassigned) [Cpd. No. 035-En2, (R)- or (S)-N-((4-(4-(trifluoromethoxy)phenyl)-2-(trifluoromethyl)-4,5,6,7-tetrahydropyrazolo[1,5-a]pyrimidin-6-yl)methyl)acrylamide] |  | EC50 ([1]; Homo sapiens, NCI-H226, 144 h): < 1 µM; EC50 ([2]; Homo sapiens, NCI-H2052, 144 h): 1 to 10 µM |
| C=CC(=O)NCC1CN(CC2CCCCC2)c2ccnn2C1 (single isomer, unassigned) [Cpd. No. 055-En2, (R)- or (S)-N-((4-(cyclohexylmethyl)-4,5,6,7-tetrahydropyrazolo[1,5-a]pyrimidin-6-yl)-methyl)acrylamide] |  | EC50 ([1]; Homo sapiens, NCI-H226, 144 h): < 1 µM; EC50 ([2]; Homo sapiens, NCI-H2052, 144 h): > 10 µM |
| C=CC(=O)NC1CN(c2ccc(C(F)(F)F)c(F)c2)c2ccnn2C1 (single isomer, unassigned) [Cpd. No. 064-En1, (R)- or (S)-N-(4-(3-fluoro-4-(trifluoromethyl)phenyl)-4,5,6,7-tetrahydropyrazolo[1,5-a]pyrimidin-6-yl)acrylamide] |  | EC50 ([1]; Homo sapiens, NCI-H226, 144 h): < 1 µM; EC50 ([2]; Homo sapiens, NCI-H2052, 144 h): < 1 µM |
| C=CC(=O)NCC1CN(CC#Cc2ccccc2)c2ccnn2C1 (stereo not drawn) [Cpd. No. 056, N-((4-(3-phenylprop-2-yn-1-yl)-4,5,6,7-tetrahydropyrazolo[1,5-a]pyrimidin-6-yl)-methyl)acrylamide] | < 1 µM |  |
| CCC(=O)NC1CN(c2ccc(C(F)(F)F)cc2)c2ccnn2C1 (stereo not drawn) [Cpd. No. 062, N-(4-(4-(trifluoromethyl)phenyl)-4,5,6,7-tetrahydropyrazolo[1,5-a]pyrimidin-6-yl)propionamide] | > 20 µM |  |
| C=CC(=O)NC1CN(c2ccc(C(F)(F)F)c(F)c2)c2ccnn2C1 (stereo not drawn) [Cpd. No. 064, N-(4-(3-fluoro-4-(trifluoromethyl)phenyl)-4,5,6,7-tetrahydropyrazolo[1,5-a]pyrimidin-6-yl)acrylamide] | < 1 µM |  |
| CCC(=O)NCC1Cc2nn(C)cc2N(c2ccc(C(F)(F)F)cc2)C1 (stereo not drawn) [Cpd. No. 073, N-((2-methyl-4-(4-(trifluoromethyl)phenyl)-4,5,6,7-tetrahydro-2H-pyrazolo[4,3-b]pyridin-6-yl)methyl)propionamide] | < 1 µM |  |
| CCC(=O)NCC1Cc2nn(C)cc2N(c2ccc(OC(F)(F)F)cc2)C1 (stereo not drawn) [Cpd. No. 075, N-((2-methyl-4-(4-(trifluoromethoxy)phenyl)-4,5,6,7-tetrahydro-2H-pyrazolo[4,3-b]pyridin-6-yl)methyl)propionamide] | 1 to 20 µM |  |
| Cn1ncc2c1CC(CNS(C)(=O)=O)CN2c1ccc(C(F)(F)F)cc1 (stereo not drawn) [Cpd. No. 076, N-((1-methyl-4-(4-(trifluoromethyl)phenyl)-4,5,6,7-tetrahydro-1H-pyrazolo[4,3-b]pyridin-6-yl)methyl)methanesulfonamide] | > 20 µM |  |
| Cn1ncc2c1CC(CNS(C)(=O)=O)CN2c1ccc(OC(F)(F)F)cc1 (stereo not drawn) [Cpd. No. 078, N-((1-methyl-4-(4-(trifluoromethoxy)phenyl)-4,5,6,7-tetrahydro-1H-pyrazolo[4,3-b]pyridin-6-yl)methyl)methanesulfonamide] | > 20 µM |  |
| Cn1cc2c(n1)CC(CNS(C)(=O)=O)CN2c1ccc(OC(F)(F)F)cc1 (stereo not drawn) [Cpd. No. 079, N-((2-methyl-4-(4-(trifluoromethoxy)phenyl)-4,5,6,7-tetrahydro-2H-pyrazolo[4,3-b]pyridin-6-yl)methyl)methanesulfonamide] | 1 to 20 µM |  |
| CCC(=O)NCC1Cc2c(cnn2Cc2cccc(C(N)=O)c2)N(c2ccc(C(F)(F)F)cc2)C1 (stereo not drawn) [Cpd. No. 082, 3-((6-(propionamide-methyl)-4-(4-(trifluoromethyl)phenyl)-4,5,6,7-tetrahydro-1H-pyrazolo[4,3-b]pyridin-1-yl)methyl)benzamide] |  | EC50 [3]: < 1 µM |
| CCC(=O)NCC1Cc2nn(Cc3cccc(C(N)=O)c3)cc2N(c2ccc(C(F)(F)F)cc2)C1 (stereo not drawn) [Cpd. No. 083, 3-((6-(propionamide-methyl)-4-(4-(trifluoromethyl)phenyl)-4,5,6,7-tetrahydro-2H-pyrazolo[4,3-b]pyridin-2-yl)methyl)benzamide] |  | EC50 [3]: > 20 µM |
| C[C@H](NC(=O)NCC1CN(c2ccc(C(F)(F)F)cc2)c2ccnn2C1)c1ccccn1 (stereo partly drawn) [Cpd. No. 091, 1-((S)-1-(pyridin-2-yl)ethyl)-3-((4-(4-(trifluoromethyl)phenyl)-4,5,6,7-tetrahydropyrazolo[1,5-a]pyrimidin-6-yl)methyl)urea] | > 20 µM |  |
